Laboratory results: US8440654B2, “Thieno- and furo-pyrimidine modulators of the histamine H4 receptor” (Janssen Pharmaceutica NV, priority 2007, dated 2013)
Structures can show the parent of a compound that is named as a salt.

Each molecule was assayed against T1, human histamine H4 receptor (Homo sapiens, UniProt Q9H3N8) (assay: Binding Assay on Recombinant Human Histamine H4 Receptor). Settings: competition binding with 3H-histamine, membranes of SK-N-MC or COS7 cells transfected with human H4R; average of results obtained.
T1 construct: expressed in transfected cells; host or cells: SK-N-MC cells or COS7 cells, transiently transfected with pH4R; membrane preparation
T1 sequence (Q9H3N8 whole entry): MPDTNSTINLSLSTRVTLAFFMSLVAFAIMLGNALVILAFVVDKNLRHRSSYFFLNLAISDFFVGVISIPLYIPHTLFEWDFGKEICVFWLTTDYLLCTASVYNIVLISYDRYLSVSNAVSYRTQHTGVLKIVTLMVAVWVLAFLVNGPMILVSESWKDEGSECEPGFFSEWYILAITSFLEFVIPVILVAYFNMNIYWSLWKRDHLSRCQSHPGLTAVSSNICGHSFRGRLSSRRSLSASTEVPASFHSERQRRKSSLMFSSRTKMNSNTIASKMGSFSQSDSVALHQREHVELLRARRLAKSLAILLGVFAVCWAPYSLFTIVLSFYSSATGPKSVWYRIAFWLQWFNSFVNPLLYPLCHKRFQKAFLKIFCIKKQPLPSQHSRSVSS
Procedure: Biological Methods: Binding Assay on Recombinant Human Histamine H4 Receptor.
SK-N-MC cells or COS7 cells were transiently transfected with pH4R and grown in 150 cm^2 tissue culture dishes. Cells were washed with saline solution, scraped with a cell scraper and collected by centrifugation (1000 rpm, 5 min). Cell membranes were prepared by homogenization of the cell pellet in 20 mM Tris-HCl with a polytron tissue homogenizer for 10 sec at high speed. Homogenate was centrifuged at 1000 rpm for 5 min at 4° C. The supernatant was then collected and centrifuged at 20,000×g for 25 min at 4° C. The final pellet was resuspended in 50 mM Tris-HCl. Cell membranes were incubated with ^3H-histamine (5-70 nM) in the presence or absence of excess histamine (10,000 nM). Incubation occurred at room temperature for 45 min. Membranes were harvested by rapid filtration over Whatman GF/C filters and washed 4 times with ice-cold 50 mM Tris HCl. Filters were then dried, mixed with scintillant and counted for radioactivity. SK-N-MC or COS7 cells expressing human histamine H4 receptor were used to measure the affinity of binding of other compounds and their ability to displace ^3H-ligand binding by incubating the above-described reaction in the presence of various concentrations of inhibitor or compound to be tested. For competition binding studies using ^3H-histamine, K values were calculated, based on an experimentally determined KD value of 5 nM and a ligand concentration of 5 nM, according to Y.-C.
CC1CCc2sc3c(N4CCN(C)CC4)nc(N)nc3c2C1 (centres unmarked) [Example 43, 8-Methyl-4-(4-methyl-piperazin-1-yl)-6,7,8,9-tetrahydro[1]benzo-thieno[3,2-d]pyrimidin-2-amine trifluoroacetic acid salt] was tested, and the Ki was 7 nM. Molecule Nc1nc(N2CCCNCC2)c2oc3c(c2n1)CCCC3 [Example 22, 4-(1,4-Diazepan-1-yl)-6,7,8,9-tetrahydro[1]benzo-furo[3,2-d]pyrimidin-2-amine trifluoroacetic acid salt] has a Ki of 3 nM. For CN[C@H]1CCN(c2nc(N)nc3c4c(sc23)CCCC4)C1 (single isomer, unassigned) [Example 31], the Ki was 5 nM. For Nc1nc(N2CC(N)C2)c2sc3c(c2n1)CCCC3 [Example 42, 4-(3-Aminoazetidin-1-yl)-6,7,8,9-tetrahydro[1]benzo-thieno[3,2-d]pyrimidin-2-amine trifluoroacetic acid salt], the Ki was 467 nM. CC1(C)CCc2sc3c(N4CC[C@@H](N)C4)nc(N)nc3c2C1 [Example 136, 4-[(3R)-3-Aminopyrrolidin-1-yl]-8,8-dimethyl-6,7,8,9-tetrahydro[1]benzothieno[3,2-d]pyrimidin-2-amine hydrochloride] was tested, and the Ki was 7.7 nM. In the case of CN[C@@H]1CCN(c2nc(N)nc3c4c(oc23)CCC(F)(F)C4)C1 [Example 116, 8,8-Difluoro-4-[(3R)-3-(methylamino)pyrrolidin-1-yl]-6,7,8,9-tetrahydro[1]benzofuro[3,2-d]pyrimidin-2-amine hydrochloride], the Ki is reported as 0.48 nM. For c1nc(N2CCNCC2)c2sc3c(c2n1)CCCC3 [Example 11, 4-piperazin-1-yl-6,7,8,9-tetrahydro-benzo[4,5]thieno[3,2-d]pyrimidine], the Ki was 454 nM. Molecule Nc1nc(N2CC[C@H](N)C2)c2sc3c(c2n1)CC(F)(F)CC3 [Example 119, 4-[(3S)-3-Aminopyrrolidin-1-yl]-8,8-difluoro-6,7,8,9-tetrahydro[1]benzothieno[3,2-d]pyrimidin-2-amine hydrochloride] has a Ki of 21 nM. CN[C@@H]1CCN(c2nc(N)nc3c4c(sc23)CCC(F)(F)C4)C1 [Example 59, 8,8-Difluoro-4-[(3R)-3-(methylamino)pyrrolidin-1-yl]-6,7,8,9-tetrahydro[1]benzothieno[3,2-d]pyrimidin-2-amine trifluoroacetic acid salt] showed a Ki of 9 nM. Work on Nc1nc(N2C[C@H]3CCCN[C@H]3C2)c2sc3c(c2n1)CCCCC3 [Example 48, 4-[(4aR,7aR)-Octahydro-6H-pyrrolo[3,4-b]pyridin-6-yl]-7,8,9,10-tetrahydro-6H-cyclohepta[4,5-d]pyrimidin-2-amine trifluoroacetic acid salt] yielded a Ki of 3 nM. With Nc1nc(N2C[C@H]3CCCN[C@H]3C2)c2oc3c(c2n1)CC(F)(F)CC3 [Example 124, 4-((R,R)-octahydropyrrolo[3,4-b]pyridin-6-yl)-8,8-difluoro-6,7,8,9-tetrahydro[1]benzofuro[3,2-d]pyrimidin-2-amine trifluoroacetate] the Ki was 33 nM. With Nc1nc(N2CC(N)C2)c2oc3c(c2n1)CC(F)(F)CC3 [Example 127, 4-(3-Aminoazetidin-1-yl)-8,8-difluoro-6,7,8,9-tetrahydro[1]benzofuro[3,2-d]pyrimidin-2-amine hydrochloride] the Ki was 64 nM. With CNC1CCN(c2nc(N)nc3c4c(oc23)CCCC4)C1 (stereo in doubt) [Example 21, 4-[(3R)-3-(Methyl-amino)pyrrolidin-1-yl]-6,7,8,9-tetrahydro[1]benzo-furo[3,2-d]pyrimidin-2-amine trifluoro acid salt] the Ki was 3 nM. CN1CCN(c2ncnc3c4c(sc23)CCCC4)CC1 [Example 10, 4-(4-Methyl-piperazin-1-yl)-6,7,8,9-tetrahydro-benzo[4,5]thieno[3,2-d]pyrimidine] gave a Ki of 132 nM. Nc1nc(N2CCCNCC2)c2sc3c(c2n1)CCCC3 [Example 37, 4-(1,4-Diazepan-1-yl)-6,7,8,9-tetrahydro[1]benzo-thieno[3,2-d]pyrimidin-2-amine hydrochloric acid salt] was tested, and the Ki was 15 nM. Work on CC1(C)CCc2sc3c(N4CCCNCC4)nc(N)nc3c2C1 [Example 132, 4-(1,4-Diazepan-1-yl)-8,8-dimethyl-6,7,8,9-tetrahydro[1]benzothieno[3,2-d]pyrimidin-2-amine trifluoroacetate] yielded a Ki of 35 nM. c1nc(N2CCNCC2)c2oc3c(c2n1)CCCC3 [Example 9, 4-piperazin-1-yl-6,7,8,9-tetrahydro-benzo[4,5]furo[3,2-d]pyrimidine] was tested, and the Ki was 110 nM. With CN1CCN(c2nc(N)nc3c4c(sc23)CCCC4)CC1 [Example 2, 4-(4-Methyl-piperazin-1-yl)-6,7,8,9-tetrahydro-benzo[4,5]thieno[3,2-d]pyrimidin-2-ylamine] the Ki was 13 nM. Molecule CN[C@H]1CCN(c2nc(N)nc3c4c(sc23)CCCC4)C1 [Example 55, 4-[(3S)-3-(Methyl-amino)pyrrolidin-1-yl]-6,7,8,9-tetrahydro[1]benzo-thieno[3,2-d]pyrimidin-2-amine trifluoroacetic acid salt] has a Ki of 33 nM. In the case of Nc1nc(N2CCNCC2)c2oc3c(c2n1)CCCC3 [Example 6, 4-piperazin-1-yl-6,7,8,9-tetrahydro-benzo[4,5]furo[3,2-d]pyrimidin-2-ylamine], the Ki is reported as 5 nM. In the case of CN[C@@H]1CN(c2nc(N)nc3c4c(sc23)CCCC4)C[C@@H]1O [Example 38, (3S,4S)-1-(2-Amino-6,7,8,9-tetrahydro[1]benzothieno[3,2-d]pyrimidin-4-yl)-4-(methyl-amino)pyrrolidin-3-of tri-fluoroacetic acid salt], the Ki is reported as 300 nM. CN(CCN)c1nc(N)nc2c3c(sc12)CCC(C)(C)C3 [Example 133, N^4-(2-Aminoethyl)-N^4,8,8-trimethyl-6,7,8,9-tetrahydro[1]benzothieno[3,2-d]pyrimidine-2,4-diamine trifluoroacetate] showed a Ki of 54 nM. With Nc1nc(N2CCN3CCCC3C2)c2sc3c(c2n1)CCCC3 (centres unmarked) [Example 52, 4-(Hexahydropyrrolo[1,2-a]pyrazin-2(1H)-yl-6,7,8,9-tetrahydro[1]benzothieno[3,2-d]pyrimidin-2-aminetrifluoroacetic acid salt] the Ki was 67 nM. CNC1CCN(c2nc(N)nc3c(Br)csc23)C1 (stereo in doubt) [Example 14, 7-Bromo-4-(3R)-3-(methyl-amino)pyrrolidin-1-yl-d]pyrimidin-2-amine tri-fluoroacetic acid salt] gave a Ki of 1050 nM. With CN[C@H]1CCN(c2nc(N)nc3c4c(sc23)CCC(C)(C)C4)C1 [Example 135, 8,8-Dimethyl-4-[(3S)-3-(methylamino)pyrrolidin-1-yl]-6,7,8,9-tetrahydro[1]benzothieno[3,2-d]pyrimidin-2-amine hydrochloride] the Ki was 35 nM. Nc1nc(N2CCCNCC2)c2sc3c(c2n1)CC(F)(F)CC3 [Example 114, 4-(1,4-Diazepan-1-yl)-8,8-difluoro-6,7,8,9-tetrahydro[1]benzothieno[3,2-d]pyrimidin-2-amine trifluoroacetate] showed a Ki of 2.1 nM. With CC(C)(C)c1cc2nc(N)nc(N3CCC(N)C3)c2s1 (stereo in doubt) [Example 18, 4-[(3R)-3-Aminopyrrolidin-1-yl]-6-tert-butylthieno[3,2-d]pyrimidin-2-amine trifluoroacetic acid salt] the Ki was 221 nM. Work on CN[C@H]1CCN(c2nc(N)nc3c4c(oc23)CCC(F)(F)C4)C1 [Example 122, 8,8-Difluoro-4-[(3S)-3-(methylamino)pyrrolidin-1-yl]-6,7,8,9-tetrahydro[1]benzofuro[3,2-d]pyrimidin-2-amine trifluoroacetate] yielded a Ki of 7 nM. CN[C@@H]1CCN(c2nc(N)nc3c4c(sc23)CCC(C)(C)C4)C1 [Example 134, 8,8-Dimethyl-4-[(3R)-3-(methylamino)pyrrolidin-1-yl]-6,7,8,9-tetrahydro[1]benzothieno[3,2-d]pyrimidin-2-amine hydrochloride] showed a Ki of 7.6 nM. Molecule CN[C@H]1CCN(c2nc(N)nc3cc(C(C)(C)C)sc23)C1 [Example 16, trifluoroacetic acid salt] has a Ki of 71 nM. With “(3R)-N-Methyl-1-(6,7,8,9- tetrahydro[1]benzo- thieno[3,2-d]pyrimidin-4- yl)pyrrolidin-3-amine [Example 30]” the Ki was 145 nM. In the case of CNC1CCN(c2ncnc3c4c(oc23)CCCC4)C1 (stereo in doubt) [Example 28, (3R)-N-Methyl-1-(6,7,8,9-tetrahydro[1]benzofuro[3,2-d]pyrimidin-4-yl)pyrrolidin-3-amine], the Ki is reported as 66 nM. Work on Nc1nc(N2C[C@H]3CNC[C@H]3C2)c2sc3c(c2n1)CC(F)(F)CC3 [Example 129, 8,8-Difluoro-4-[(3aR,6aS)-hexahydropyrrolo[3,4-c]pyrrol-2(1H)-yl]-6,7,8,9-tetrahydro[1]benzothieno[3,2-d]pyrimidin-2-amine (free amine)] yielded a Ki of 680 nM. CN1CCN(c2nc(N)nc3ccsc23)CC1 [Example 1, 4-(4-Methyl-piperazin-1-yl)-thieno[3,2-d]pyrimidin-2-ylamine] was tested, and the Ki was 503 nM. Nc1nc(N2CCNCC2)c2sc3c(c2n1)CC(F)(F)CC3 [Example 58, 8,8-Difluoro-4-piperazin-1-yl-6,7,8,9-tetrahydro[1]ben-zothieno[3,2-d]pyrimidin-2-amine trifluoroacetic acid salt] was tested, and the Ki was 14 nM.
